Converted amounts (≈) assume the structure as drawn.
Experiment: Solubility determined by HPLC
Assay type: physicochemical
Details: plasma or biological fluid; α-Minimal Essential Media (α-MEM) containing 5% Fetal Calf Serum (FCS)
Experimental: Table Footnote: ^aDetermined in α-Minimal Essential Media (α-MEM) containing 5% Fetal Calf Serum (FCS). ^bDetermined in Phosphate Buffered Saline (PBS) containing 2 equivalents of sodium bicarbonate. ^cDetermined in Lactate Buffer at pH=4.
Solubility and stability of compounds in media (+5% Fetal calf serum), phosphate buffered saline (+sodium bicarbonate) or lactate buffer (at pH=4) were determined by HPLC.

SMILES: CS(=O)(=O)c1cc([N+](=O)[O-])c(C(N)=O)cc1N(CCBr)CCBr [compound 4]
- solubility: 68 µM (≈ 32.2 µg/mL)
